In patent US20070117858A1, “SUBSTITUTED 5-HETEROARYL-1-PHENYL-PYRAZOLE CANNABINOID MODULATORS” (priority 2005, published 2007):
pIC50: −log10 of the molar value.

Assays:
human CB2 receptor = target: T1, human CB2 receptor (Homo sapiens, UniProt P34972); experiment: Cannabinoid CB2 receptor binding assay ([3H]-CP-55,940 displacement, SK-N-MC cell membranes); conditions: 1.5 h; test concentration of 0.2 μM; radioligand CP-55,940 0.2 nM; read-out: Cannabinoid CB2 Receptor Binding, percent inhibition
T1 construct: expressed in transfected cells; host or cells: SK-N-MC cells, stably transfected with pcDNA3 CB-2 (human); semi-purified membrane pellet
Description: (§1) Binding Assay for CB1 or CB2 Agonists or Inverse Agonists
(§2) The human CB1 and CB2 receptors were stably expressed in SK-N-MC cells transfected with pcDNA3 CB-1 (human) or pcDNA3 CB-2 (human). The cells were grown in T-180 cell culture flasks under standard cell culture conditions at 37° C. in a 5% CO2 atmosphere. The cells were harvested by trysinization and homogenized in a homogenization buffer (10 mM Tris, 0.2 mM MgCl2, 5 mM KCl, with protease inhibitors aprotinin, leupeptin, pepstatin A and bacitracin) and centrifuged (2000 g). The supernatant was then centrifuged in 2M sucrose (31,300 g) to produce a semi-purified membrane pellet. The pellet was resuspended in homogenization and stored at −80° C.
(§3) On the day of the assay, the pellet was thawed on ice and diluted in assay buffer (50 mM Tris-HCl, 5 mM MgCl2, 2.5 mM EDTA, 0.5 mg/mL fatty acid free bovine serum albumin, pH 7.5). The diluted membrane pellet was added with buffer, either a test compound or vehicle standard and the radioligand […] (0.2 nM) to the wells of a 96-well polypropylene plate. Non-specific binding was measured in wells containing W1N 55,212 (10 uM). The plate was covered and incubated for 90 minutes at 30° C. The contents were then aspirated onto a Packard Unifilter GF/C filter bottom plate prewet with 0.5% polyethyleneimine. The wells of the polypropylene plate were rinsed and aspirated seven times with a 0.9% saline-0.5% Tween 20 solution. The Unifilter plate was dried, scintillation cocktail was added to each well and the counts representing binding were quantitated in a TopCount scintillation counter.
(§4) For compounds tested, an IC50 binding value was obtained from percent inhibition studies in which various test concentrations were used. The binding value was calculated by linear regression.
(§5) For compounds without an IC50 binding value, the percent inhibition (%) was obtained at a test concentration of 0.2 μM.

human CB1 receptor = target: T2, human CB1 receptor (Homo sapiens, UniProt P21554); experiment: Cannabinoid CB1 receptor binding assay ([3H]-CP-55,940 displacement, SK-N-MC cell membranes); conditions: for inhibition at 0.2 µM: 1.5 h, read-out: Cannabinoid CB1 Receptor Binding, percent inhibition
T2 construct: expressed in transfected cells; host or cells: SK-N-MC cells, stably transfected with pcDNA3 CB-1 (human); semi-purified membrane pellet
Description: as §1, §2, §3, §4, §5

T1 sequence (P34972 whole entry): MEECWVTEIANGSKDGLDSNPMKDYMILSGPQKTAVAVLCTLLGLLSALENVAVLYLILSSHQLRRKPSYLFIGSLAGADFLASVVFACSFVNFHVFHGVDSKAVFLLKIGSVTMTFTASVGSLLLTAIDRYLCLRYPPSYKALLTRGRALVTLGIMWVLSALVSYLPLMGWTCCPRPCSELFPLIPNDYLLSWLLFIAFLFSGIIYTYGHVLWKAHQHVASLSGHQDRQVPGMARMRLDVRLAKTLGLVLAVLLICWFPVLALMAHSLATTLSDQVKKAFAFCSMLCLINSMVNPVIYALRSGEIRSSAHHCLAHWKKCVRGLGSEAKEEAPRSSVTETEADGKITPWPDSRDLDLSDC
T2 sequence (P21554 whole entry): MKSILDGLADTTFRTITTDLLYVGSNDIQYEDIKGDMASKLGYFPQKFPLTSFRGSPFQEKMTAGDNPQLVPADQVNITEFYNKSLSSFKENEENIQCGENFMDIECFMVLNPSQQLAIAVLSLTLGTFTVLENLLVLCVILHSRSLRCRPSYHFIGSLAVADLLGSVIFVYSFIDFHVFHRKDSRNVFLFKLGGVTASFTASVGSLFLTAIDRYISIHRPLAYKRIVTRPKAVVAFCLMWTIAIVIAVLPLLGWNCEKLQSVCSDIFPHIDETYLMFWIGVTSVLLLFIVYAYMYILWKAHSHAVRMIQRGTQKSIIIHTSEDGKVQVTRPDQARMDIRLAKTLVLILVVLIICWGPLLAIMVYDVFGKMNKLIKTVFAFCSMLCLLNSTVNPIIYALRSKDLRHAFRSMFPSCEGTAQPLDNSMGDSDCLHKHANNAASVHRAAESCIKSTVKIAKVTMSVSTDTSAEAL

Compound C[C@@H](NC(=O)c1nn(-c2ccc(Cl)cc2Cl)c(-c2ccc(Cl)s2)c1C#N)C1CCCCC1 [Cpd 24, 5-(5-chloro-thiophen-2-yl)-4-cyano-1-(2,4-dichloro-phenyl)-1H-pyrazole-3-carboxylic acid [(1R)-1-cyclohexyl-ethyl]-amide] has an inhibition at 0.2 µM (human CB2 receptor) of 13% and a pIC50 (human CB1 receptor) of 7.82.

In the case of N#Cc1c(C(=O)NN2CCCCC2)nn(-c2ccc(Cl)cc2Cl)c1-c1cccs1 [Cpd 20, 4-cyano-1-(2,4-dichloro-phenyl)-5-thiophen-2-yl-1H-pyrazole-3-carboxylic acid piperidin-1-ylamide], the inhibition at 0.2 µM (human CB2 receptor) was 9% and the inhibition at 0.2 µM (human CB1 receptor) was 37%.

Cc1ccc(-c2c(C)c(C(=O)NN3CCCCC3)nn2-c2ccc(Cl)cc2Cl)o1 [Cpd 53, 1-(2,4-dichloro-phenyl)-4-methyl-5-(5-methyl-furan-2-yl)-1H-pyrazole-3-carboxylic acid piperidin-1-ylamide] showed an inhibition at 0.2 µM (human CB2 receptor) of 21% and an inhibition at 0.2 µM (human CB1 receptor) of 40%.

With CCc1c(C(=O)N[C@@H](C)C2CCCCC2)nn(-c2ccc(Cl)cc2Cl)c1-c1ccc(Br)s1 [Cpd 43, 5-(5-bromo-thiophen-2-yl)-1-(2,4-dichloro-phenyl)-4-ethyl-1H-pyrazole-3-carboxylic acid [(1S)-1-cyclohexyl-ethyl]-amide] the inhibition at 0.2 µM (human CB2 receptor) was 39% and the pIC50 (human CB1 receptor) was 8.10.

Work on C[C@@H](NC(=O)c1nn(-c2ccc(Cl)cc2Cl)c(-c2ccc(Cl)s2)c1C#N)c1ccccn1 [Cpd 27, 5-(5-chloro-thiophen-2-yl)-4-cyano-1-(2,4-dichloro-phenyl)-1H-pyrazole-3-carboxylic acid [(1R)-1-pyridin-2-yl-ethyl]-amide] yielded an inhibition at 0.2 µM (human CB2 receptor) of 12% and an inhibition at 0.2 µM (human CB1 receptor) of 69%.

Compound C[C@@H](NC(=O)c1nn(-c2ccc(Cl)cc2Cl)c(-c2cccs2)c1C#N)C1CCCCC1 [Cpd 18, 4-cyano-1-(2,4-dichloro-phenyl)-5-thiophen-2-yl-1H-pyrazole-3-carboxylic acid [(1R)-1-cyclohexyl-ethyl]-amide] has an inhibition at 0.2 µM (human CB2 receptor) of 21% and an inhibition at 0.2 µM (human CB1 receptor) of 66%.

For Cc1c(C(=O)N[C@@H](C)C2CCCCC2)nn(-c2ccc(Cl)cc2Cl)c1-c1cc(Br)cs1 [Cpd 48, 5-(4-bromo-thiophen-2-yl)-1-(2,4-dichloro-phenyl)-4-methyl-1H-pyrazole-3-carboxylic acid [(1S)-1-cyclohexyl-ethyl]-amide], the inhibition at 0.2 µM (human CB2 receptor) was 49% and the inhibition at 0.2 µM (human CB1 receptor) was 60%.

CCc1c(C(=O)NN2CCCCC2)nn(-c2ccc(Cl)cc2Cl)c1-c1ccc(Br)s1 [Cpd 35, 5-(5-bromo-thiophen-2-yl)-1-(2,4-dichloro-phenyl)-4-ethyl-1H-pyrazole-3-carboxylic acid piperidin-1-ylamide] was tested, and the inhibition at 0.2 µM (human CB2 receptor) was 29% and the pIC50 (human CB1 receptor) was 7.89.

In the case of Cc1c(C(=O)N[C@@H](C)c2ccccc2)nn(-c2ccc(Cl)cc2Cl)c1-c1cc(Br)cs1 [Cpd 46, 5-(4-bromo-thiophen-2-yl)-1-(2,4-dichloro-phenyl)-4-methyl-1H-pyrazole-3-carboxylic acid [(1S)-1-phenyl-ethyl]-amide], the inhibition at 0.2 µM (human CB2 receptor) was 47% and the inhibition at 0.2 µM (human CB1 receptor) was 52%.

In the case of Cc1c(C(=O)N[C@@H](C)c2ccccn2)nn(-c2ccc(Cl)cc2Cl)c1-c1cccs1 [Cpd 9, 1-(2,4-dichloro-phenyl)-4-methyl-5-thiophen-2-yl-1H-pyrazole-3-carboxylic acid [(1S)-1-pyridin-2-yl-ethyl]-amide], the inhibition at 0.2 µM (human CB2 receptor) was 8% and the inhibition at 0.2 µM (human CB1 receptor) was 25%.

Compound Cc1c(C(=O)NN2CCC(O)CC2)nn(-c2ccc(Cl)cc2Cl)c1-c1ccc(Cl)s1 [Cpd 4, 5-(5-chloro-thiophen-2-yl)-1-(2,4-dichloro-phenyl)-4-methyl-1H-pyrazole-3-carboxylic acid (4-hydroxy-piperidin-1-yl)-amide] has an inhibition at 0.2 µM (human CB2 receptor) of 11% and an inhibition at 0.2 µM (human CB1 receptor) of 27%.

With Cc1c(C(=O)N2CCCCC2)nn(-c2ccc(Cl)cc2Cl)c1-c1cc(Br)cs1 [Cpd 45, [5-(4-bromo-thiophen-2-yl)-1-(2,4-dichloro-phenyl)-4-methyl-1H-pyrazol-3-yl]-piperidin-1-yl-methanone] the inhibition at 0.2 µM (human CB2 receptor) was 12% and the inhibition at 0.2 µM (human CB1 receptor) was 33%.

In the case of Cc1c(C(=O)NN2CCCCC2)nn(-c2ccc(Cl)cc2Cl)c1-c1ccc(I)s1 [Cpd 29, 1-(2,4-dichloro-phenyl)-5-(5-iodo-thiophen-2-yl)-4-methyl-1H-pyrazole-3-carboxylic acid piperidin-1-ylamide], the inhibition at 0.2 µM (human CB2 receptor) was 55% and the pIC50 (human CB1 receptor) was 7.77.

Cc1c(C(=O)N[C@@H](C)C2CCCCC2)nn(-c2ccc(Cl)cc2Cl)c1-c1ccc(F)s1 [Cpd 33, 1-(2,4-dichloro-phenyl)-5-(5-fluoro-thiophen-2-yl)-4-methyl-1H-pyrazole-3-carboxylic acid [(1S)-1-cyclohexyl-ethyl]-amide] was tested, and the inhibition at 0.2 µM (human CB2 receptor) was 41% and the inhibition at 0.2 µM (human CB1 receptor) was 73%.

Compound Cc1c(C(=O)N[C@H](C)c2ccccc2)nn(-c2ccc(Cl)cc2Cl)c1-c1ccc(F)s1 [Cpd 32, 1-(2,4-dichloro-phenyl)-5-(5-fluoro-thiophen-2-yl)-4-methyl-1H-pyrazole-3-carboxylic acid [(1R)-1-phenyl-ethyl]-amide] has an inhibition at 0.2 µM (human CB2 receptor) of 55% and a pIC50 (human CB1 receptor) of 7.34.

N#Cc1c(C(=O)NN2CCCCC2)nn(-c2ccc(Cl)cc2Cl)c1-c1ccc(Cl)s1 [Cpd 23, 5-(5-chloro-thiophen-2-yl)-4-cyano-1-(2,4-dichloro-phenyl)-1H-pyrazole-3-carboxylic acid piperidin-1-ylamide] was tested, and the inhibition at 0.2 µM (human CB2 receptor) was 22% and the pIC50 (human CB1 receptor) was 7.15.

For CCc1c(C(=O)N[N+]2(C)CCCCC2)nn(-c2ccc(Cl)cc2Cl)c1-c1ccc(Br)s1 [Cpd 52, 1-{[5-(5-bromo-thiophen-2-yl)-1-(2,4-dichloro-phenyl)-4-ethyl-1H-pyrazole-3-carbonyl]-amino}-1-methyl-piperidinium], the inhibition at 0.2 µM (human CB2 receptor) was 0% and the inhibition at 0.2 µM (human CB1 receptor) was 51%.

Compound CCc1c(C(=O)N[C@H](C)c2ccccc2)nn(-c2ccc(Cl)cc2Cl)c1-c1ccc(Br)s1 [Cpd 40, 5-(5-bromo-thiophen-2-yl)-1-(2,4-dichloro-phenyl)-4-ethyl-1H-pyrazole-3-carboxylic acid [(1R)-1-phenyl-ethyl]-amide] has an inhibition at 0.2 µM (human CB2 receptor) of 52% and an inhibition at 0.2 µM (human CB1 receptor) of 78%.

Cc1c(C(=O)N[C@@H](C)c2ccccc2)nn(-c2ccc(Cl)cc2Cl)c1-c1ccc(F)s1 [Cpd 31, 1-(2,4-dichloro-phenyl)-5-(5-fluoro-thiophen-2-yl)-4-methyl-1H-pyrazole-3-carboxylic acid [(1S)-1-phenyl-ethyl]-amide] gave an inhibition at 0.2 µM (human CB2 receptor) of 39% and an inhibition at 0.2 µM (human CB1 receptor) of 64%.
